Reference: patent publication US9241923B2, “Methods for promoting neuronal development and/or health” (Mead Johnson Nutrition Company, priority 2013, dated 2016)

Tested on: human adipose derived stem cells (hADSCs)
Test: neurogenesis / neuronal differentiation of hADSCs judged by neuronal morphology under phase contrast microscopy
Assay type: cell-based
Method: hADSCs were purchased from Invitrogen, also known as Life Technologies, of Carlsbad, Calif., U.S.A., and were cultured as near confluent monolayers in 100 mm culture plates within a maintenance media consisting of Complete MesenPro RS medium with growth supplement and L-glutamine obtained from Invitrogen®. The process of culturing, passage, and seeding the hADSCs is described below.
The subculture of hADSCs was performed when cell culture reached confluence. To passage hADSCs, the following procedure is used: i) aspirate the Complete MesenPRO RS medium from the cells; ii) rinse the surface area of the cell layer with Dulbecco's phosphate buffered saline (DBPS) buffer by adding the DPBS to the side of the vessel opposite the attached cell layer and rocking the vessel back and forth several times; iii) remove the DPBS by aspiration and discard; iv) detach the cells by adding a sufficient volume of pre-warmed trypsin-EDTA solution without phenol red to cover the cell layer; v) incubate at 37° C. for approximately 7 minutes; vi) observe the cells under a microscope to determine if additional incubation is needed; vii) add 3 mL of the maintenance media to the plate, mix the cell suspension, add the suspension to a 15 mL centrifuge tube and centrifuge at 210 g for 5 minutes; viii) determine the total number of cells and percent viability using a hemacytometer; ix) add Complete MesenPRO RS medium to each vessel so that the final culture volume is 0.2 mL-0.5 mL per cm^2; x) seed the cells by adding the appropriate volume of cells to each vessel and incubate at 37° C., 5% CO2 and 90% humidity; and xi) three or four days after seeding, completely remove the medium and replace with an equal volume of Complete MesenPRO RS medium.
Before seeding the passaged hADSCs on fresh culture plates, the surfaces of the culture ware are washed with sterile DPBS solution three times, followed by multiple rinses with sterile water. The first layer of coating is poly-L-ornithine. The coating is prepared by adding about 15 to about 20 µg/mL of poly-L-ornithine and incubating at 37° C. for one hour. The plate is washed three times with DPBS, 15 minutes per wash. The second layer of coating is bovine plasma fibronectin. The fibronectin is diluted in DPBS from stock to 1:1000 and 500 μL is added to each well. The plate is left at room temperature for one hour. One final wash with 500 μL per well of DPBS is performed and the plate is used immediately.
The cells were then subjected to removal and reseeded at a density of 2×10^4 cells/ml (1×10^4 cells/well) onto 24-well culture plates that contained a poly-L-ornithine and bovine plasma fibronectin coating.
Three days after seeding and priming; the culture medium was changed into neuronal differentiation medium. […]

| Structure (SMILES) | neuronal morphology of hADSCs (DHA at 20 μM (positive control), vs negative control, FIG. 2B) | neurite outgrowth compared with DHA (ALA 5 μg/ml vs DHA 20 μM, FIG. 2C vs FIG. 2B) | neurogenesis (neuronal morphology displayed by the hADSCs) (ALA at 5 μg/ml, phase contrast microscopy at 3 hours and 24 hours, vs negative control (no treatment), FIG. 2C) | cell death (cellular toxicity) as compared to DHA (wells treated with ALA 5 μg/ml vs DHA 20 μM, hADSCs) |
| --- | --- | --- | --- | --- |
| CC/C=C\C/C=C\C/C=C\C/C=C\C/C=C\C/C=C\CCC(=O)O [DHA, docosahexanoic acid, reference compound] | enhanced neuronal morphology of hADSCs |  |  |  |
| O=C(O)CCCCC1CCSS1 (stereo not drawn) [ALA, Alpha-lipoic acid] |  | robust ability to promote neurogenesis in terms of neurite outgrowth | strong effect to enhance neurogenesis | less cell death overall |
